Measured values taken from patent publication US11370801B2, “Pyrrolobenzodiazepine conjugates” (priority 2017, dated 2022).

Key:
[1] = tested on: NCI-N87; test: Therapeutic index: MTD in rat / MED in mouse efficacy model; format: in vivo; details: ADC of the drug linker
Experimental: The therapeutic index of each ADC/drug linker was calculated using the following equation: TI=MTD in rat (mg/kg)/MED in mouse efficacy model (mg/kg)

[2] = in vitro cytotoxicity, picomolar region; cited from earlier work

Row | SMILES | NCI-N87 MED [1] [mg/kg] | cytotoxic potency relative to DSB-120 [2] [fold]
1 | COc1cc2c(cc1OCc1cccc(COc3cc4c(cc3OC)C(=O)N3CCC[C@H]3[C@H](O)N4C(=O)OCc3ccc(NC(=O)[C@H](C)NC(=O)[C@@H](NC(=O)CCOCCOCCOCCOCCOCCOCCOCCOCCNC(=O)CCN4C(=O)C=CC4=O)C(C)C)cc3)c1)N=C[C@@H]1CCCN1C2=O [Compound 3, 4-((2S,5S)-37-(2,5-dioxo-2,5-dihydro-1H-pyrrol-1-yl)-5-isopropyl-2-methyl-4,7,35-trioxo-10,13,16,19,22,25,28,31-octaoxa-3,6,34-triazaheptatriacontanamido)benzyl (11S,11aS)-11-hydroxy-7-methoxy-8-((3-((((S)-7-methoxy-5-oxo-2,3,5,11a-tetrahydro-1H-benzo[e]pyrrolo[1,2-a][1,4]diazepin-8-yl)oxy)methyl)benzyl)oxy)-5-oxo-2,3,11,11a-tetrahydro-1H-benzo[e]pyrrolo[1,2-a][1,4]diazepine-10(5H)-carboxylate] | 1 | 
2 | COc1cc2c(cc1OCCCOc1cc3c(cc1OC)C(=O)N1CCC[C@H]1[C@H](O)N3C(=O)OCc1ccc(NC(=O)[C@H](C)NC(=O)[C@@H](NC(=O)CCOCCOCCOCCOCCOCCOCCOCCOCCNC(=O)CCN3C(=O)C=CC3=O)C(C)C)cc1)N=C[C@@H]1CCCN1C2=O [Compound 2, 4-((2S,5S)-37-(2,5-dioxo-2,5-dihydro-1H-pyrrol-1-yl)-5-isopropyl-2-methyl-4,7,35-trioxo-10,13,16,19,22,25,28,31-octaoxa-3,6,34-triazaheptatriacontanamido)benzyl(11S,11aS)-11-hydroxy-7-methoxy-8-(3-(((S)-7-methoxy-5-oxo-2,3,5,11a-tetrahydro-1H-pyrrolo[2,1-c][1,4]benzodiazepin-8-yl)oxy)propoxy)-5-oxo-2,3,11,11a-tetrahydro-1H-pyrrolo[2,1-c][1,4]benzodiazepine-10(5H)-carboxylate] | 2 | 
3 | C=C1C[C@H]2C=Nc3cc(OCCCOc4cc5c(cc4OC)C(=O)N4CC(=C)C[C@H]4C=N5)c(OC)cc3C(=O)N2C1 [SG2000] |  | ~9000
4 | COc1cc2c(cc1OCCCOc1cc3c(cc1OC)C(=O)N1CCC[C@H]1[C@H](O)N3C(=O)OCc1ccc(NC(=O)[C@H](C)NC(=O)[C@@H](NC(=O)CCOCCOCCOCCOCCOCCOCCOCCOCCNC(=O)CCN3C(=O)C=CC3=O)C(C)C)cc1)N=C[C@@H]1CCCN1C2=O [Compound 1, 4-((2S,5S)-37-(2,5-dioxo-2,5-dihydro-1H-pyrrol-1-yl)-5-isopropyl-2-methyl-4,7,35-trioxo-10,13,16,19,22,25,28,31-octaoxa-3,6,34-triazaheptatriacontanamido)benzyl(11S,11aS)-11-hydroxy-7-methoxy-8-(3-(((S)-7-methoxy-5-oxo-2,3,5,11a-tetrahydro-1H-pyrrolo[2,1-c][1,4]benzodiazepin-8-yl)oxy)propoxy)-5-oxo-2,3,11,11a-tetrahydro-1H-pyrrolo[2,1-c][1,4]benzodiazepine-10(5H)-carboxylate] | 6 | 
